Test results: US20120238554A1, “SALTS OF POTASSIUM ATP CHANNEL OPENERS AND USES THEREOF” (priority 2007, published 2012)
Read-outs that look alike come from different tables or passages of the source. Each block holds one compound with its values, some of them ahead of it.

Columns and labels:
[1] = Excipient compatibility study for diazoxide choline salt; format: physicochemical
[2] = Moisture sorption analysis; format: physicochemical
Experimental: Moisture Sorption Analysis was performed with a Hiden IGAsorp Moisture Sorption Instrument, Samples were first dried at 0% relative humidity at 25° C. until an equilibrium weight was reached, or for a maximum of 4 hours. Samples were then subjected to an isothermal (25° C.) scan from 10-90% relative humidity in steps of 10%. The samples were allowed to equilibrate to an asymptotic weight at each point for a maximum of 4 hours. Following absorption, a desorption scan from […] relative humidity (at 25° C.) was run in steps of −10%, again allowing a maximum of 4 hours for the samples to equilibrate. The resulting samples after desorption were dried at 80° C. for two hours and analyzed by XRPD.

[3] = Form conversion and degradation under thermal stress (60° C.)
Experimental: Studies were also conducted to evaluate the likelihood for conversion and degradation under thermal stress.

[4] = tested on: healthy volunteers
Experimental: (§1) A randomized double-blind, placebo-controlled clinical trial was conducted in 24 healthy volunteers. They were randomized in a 2:1 ratio of treated to placebo. […] The dose was administered once per day in the morning for a period of 7 days. A number of lipid parameters were measured at baseline and again on day 7 including fasting triglycerides, total cholesterol, LDL cholesterol, HDL cholesterol, and non-HDL cholesterol. Additionally, blood pressure was measured on a daily basis.

[5] = tested on: healthy volunteers; remark: listed apart in the source
Experimental: as §1
In PK008, the dose was administered as one and one ½ tablet formulation K′.

[6] = tested on: hypertriglyceridemic patients; test: Crossover of formulations U and K′ (435 mg/day diazoxide choline): lipid responses; format: in vivo, human; settings: 15 days, 435 mg/day diazoxide choline once daily
Experimental: (§2) A clinical study was conducted in 12 hypertriglyceridemic patients. […] Treatment continued for 16 days. The endpoint of the study was percentage change from baseline to day 15 of triglycerides, total cholesterol, LDL cholesterol, HDL cholesterol and non-HDL cholesterol. Lipid parameters were measured at baseline and on days 7 and 15. Blood pressure was collected at multiple time points.

[7] = tested on: hypertriglyceridemic patients
Experimental: as §2, with “After day 8 they were crossed over from one formulation to the other formulation. […]” for “Treatment continued for 16 days.”

[8] = pH 2
Experimental: Solubility concentrations were determined using area-percent calculations with HPLC calibration curves.

[9] = mouse, in vivo; for AUC0-6: 50 mg/kg
[10] = Slurry studies of inter-conversion of the solid form; settings: n-heptane, dichloromethane; for inter-conversion of the solid form in slurry: room temperature, 7 and 14 days, toluene (Table 16 Form B: CH2Cl2, THF, t-AmOH)
[11] = Polymorph screening crystallizations and characterization of forms (XRPD, DSC, TGA); format: physicochemical
Experimental: DSC analysis were conducted with a Mettler 822 DSC, by measuring the amount of energy released by a sample, as the sample was heated from 30° C. to between 300-500° C. at a rate of 10° C./min. Typical applications of DSC analysis include determination of melting point temperature and the heat of melting; measurement of the glass transition temperature; curing and crystallization studies; and identification of phase transformations.
TGA measurements were conducted with a Mettler 851 SDTA/TGA, by measuring weight loss as a function of increasing temperature, as the samples were heated from 30° C. to 230° C. at a rate of 10° C./min. The TCA can be used to analyze desorption and decomposition behavior, characterize oxidation behavior, set burnout or conditioning parameters (temperature/ramp rate/time), and determine chemical composition.
XRPD samples were analyzed with a Shimadzu XRD-6000 system, using a Cu Kα, 40 kV, 40 mA X-ray tube. The divergence and scatter slits were 1.00 deg, and the receiving slit was 0.30 mm. Samples were continuously scanned at a range of 3.0-45.0 deg, with a step size of 0.04 deg., at a scan rate of 2 deg/min.
After hot filtration the vials were placed in a refrigerator (4° C.) for 16 hours. […] All solids were dried in vacuo at ambient temperature and 30 in. Hg.
After hot filtration the vials were then slowly cooled to room temperature at the rate of 20° C./h and stirred at room temperature for 1-2 hours. All solids were dried in vacuo at ambient temperature and 30 in. Hg.
Solvents for crystallizations were chosen based on the solubility screen summarized below.

[12] = 300 mg diazoxide/day, formulation U
[13] = baseline to day 7, 300 mg diazoxide/day as formulation U
[14] = Study EC004, 435 mg diazoxide choline, 7 days
[15] = Study TR002, 508 mg diazoxide choline, 49 days
[16] = 25° C., listed as Potassium diazoxide salt

diazoxide choline salt assayed in mixture with excipient ([1]; 1 Month 40° C./75% RH): 99.0 % (w/w) | diazoxide choline salt assayed in mixture with excipient ([1]; 1 Month 50° C.): 99.4 % (w/w)
Structure (SMILES): CC1=Nc2ccc(Cl)cc2S(=O)(=O)N1 [Diazoxide Control]

hydrate formation (hysteresis upon desorption) ([2]; 25° C.): does not form a stable hydrate | Moisture Sorption (hygroscopicity) ([2]; 25° C., listed as Choline diazoxide salt): deliquescent - | Moisture Sorption (hygroscopicity) ([2]; 25° C., listed as choline salt of diazoxide): hygroscopic | moisture absorbed ([2]; 80% relative humidity, 25° C.): over 28% | crystalline form after moisture sorption/desorption (XRPD) ([2]; listed as choline salt of diazoxide): changed to an alternate crystalline form | degradation under thermal stress (HPLC gradient area percent) [3]: did not show any significant degradation | solid form after the solubility analysis (XRPD) [8]: changed back to the free form diazoxide | Absolute oral bioavailability [9]: 100% | AUC0-6 ([9]; iv): 137.176 µg·h/mL | AUC0-6 ([9]; po): 141.26 µg·h/mL | inter-conversion of the solid form in slurry ([10]; listed as Choline Diazoxide Salt): no propensity of inter-conversion
Structure (SMILES): CC1=Nc2ccc(Cl)cc2S(=O)(=O)[N-]1.C[N+](C)(C)CCO [diazoxide choline]
form conversion and degradation under thermal stress (XRPD, DSC) [3]: consistent with the starting material, as well as the presence of additional unique peaks | HDL cholesterol, Percent change from base-line ([4]; 300 mg diazoxide/day, 7 days): 8.2% | LDL cholesterol, Percent change from base-line ([4]; 300 mg diazoxide/day, 7 days): −5.4% | Total cholesterol, Percent change from base-line ([4]; 300 mg diazoxide/day, 7 days): −2.3% | Triglycerides, Percent change from base-line ([4]; 300 mg diazoxide/day, 7 days): −13.2% | non-HDL cholesterol, Percent change from base-line ([4]; 300 mg diazoxide/day, 7 days): −6.3% | HDL cholesterol, Baseline mean ± SEM [4, 12]: 49 ± 3.3 mg/dL | HDL cholesterol, Day 7 mean ± SEM [4, 12]: 53 ± 2.9 mg/dL | LDL cholesterol, Baseline mean ± SEM [4, 12]: 111 ± 5.8 mg/dL | LDL cholesterol, Day 7 mean ± SEM [4, 12]: 105 ± 4.9 mg/dL | Total cholesterol, Baseline mean ± SEM [4, 12]: 175 ± 7.5 mg/dL | Total cholesterol, Day 7 mean ± SEM [4, 12]: 171 ± 6.4 mg/dL | Triglycerides, Baseline mean ± SEM [4, 12]: 76 ± 7.8 mg/dL | Triglycerides, Day 7 mean ± SEM [4, 12]: 66 ± 3.9 mg/dL | non-HDL cholesterol, Baseline mean ± SEM [4, 12]: 126 ± 6.6 mg/dL | non-HDL cholesterol, Day 7 mean ± SEM [4, 12]: 118 ± 5.5 mg/dL | increase HDL cholesterol [4, 13]: 8.2% | reduction in total cholesterol, LDL cholesterol and non-HDL cholesterol versus placebo arm [4, 13]: reduction in the diazoxide choline treated arm was greater | reduction of triglycerides [4, 13]: 13.2% | reduction in diastolic blood pressure ([5]; 7 days, 300 mg diazoxide/day as formulation U, healthy volunteers): 6.2 mmHg | Diastolic blood pressure, Baseline [5, 14]: 69.4 mmHg | Diastolic blood pressure, End of treatment [5, 14]: 63.2 mmHg | Systolic blood pressure, Baseline [5, 14]: 113.2 mmHg | Systolic blood pressure, End of treatment [5, 14]: 113.5 mmHg | Diastolic blood pressure, Baseline [5, 15]: 77.7 mmHg | Diastolic blood pressure, End of treatment [5, 15]: 67.0 mmHg | Systolic blood pressure, Baseline [5, 15]: 118.1 mmHg | Systolic blood pressure, End of treatment [5, 15]: 117.0 mmHg | HDL cholesterol [6]: marked increase | triglycerides, total cholesterol, LDL cholesterol and nonHDL cholesterol [6]: marked reductions | average drop in standing blood pressure ([7]; 7 days of treatment): ~8 mmHg | standing diastolic blood pressure ([7]; after 7 days of treatment, baseline 80): 75.5 mmHg | standing systolic blood pressure ([7]; after 7 days of treatment, baseline 123): 112 mmHg | supine diastolic blood pressure ([7]; after seven days of treatment, baseline 69): 62.5 mmHg | supine systolic blood pressure ([7]; after seven days of treatment, baseline 121): 116 mmHg | average drop in supine blood pressure ([7]; seven days of treatment): ~6 mmHg

Structure (SMILES): CC1=NS(=O)(=O)c2cc(Cl)ccc2[N-]1.[K+] [potassium salt of diazoxide]
crystalline form after moisture sorption/desorption (XRPD) [2]: changed to an alternate crystalline form | Moisture Sorption (hygroscopicity) ([2]; 25° C.): hygroscopic | hydrate formation (hysteresis upon desorption) ([2]; 25° C.): hemihydrate from 0-30% RH and a monohydrate from 35-75% RH | Moisture Sorption (hygroscopicity) [2, 16]: deliquescent - | hydrate formation (hysteresis upon desorption) [2, 16]: hemi/monohydrate | water absorbed ([2]; 60% RH, 25° C.): 5.4 wt % | water absorbed ([2]; 90% RH, 25° C.): 38.3 wt % | degradation under thermal stress (HPLC gradient area percent) ([3]; 60° C., 14 days): did not show any significant degradation | form conversion and degradation under thermal stress (XRPD, DSC) ([3]; 60° C., closed, protected from light, 7 and 14 days): showed unique peaks | Form ([11]; Table 26, slow cooling, Water): Free form | Form ([11]; Table 30, single solvent, fast-cooling, MeCN): C + D | solid form after the solubility analysis (XRPD) [8]: changed back to the free form diazoxide | degradation after slurry study (HPLC gradient area percent) ([10]; toluene, 14 days): did not show any significant degradation | inter-conversion of the solid form in slurry [10]: no propensity of inter-conversion
